The IC50 is the concentration needed to halve the response being measured. Read a low IC50 as greater potency.

The values below come from US20210139484A1, “DIHYDROISOQUINOLINE-2(1H)-CARBOXAMIDE AND RELATED COMPOUNDS AND THEIR USE IN TREATING MEDICAL CONDITIONS” (GOSSAMER BIO SERVICES, INC., priority 2018, published 2021).

The target in this assay is T1, human HPK1 protein (Homo sapiens, UniProt Q92918).
T1 construct: recombinant human HPK1 protein (a.a. 1-346) was expressed in Sf9 insect cells; GST (N); purchased Signalchem M23-11G; host or cells: Sf9 insect cells (baculovirus)
T1 sequence (Q92918 1-346): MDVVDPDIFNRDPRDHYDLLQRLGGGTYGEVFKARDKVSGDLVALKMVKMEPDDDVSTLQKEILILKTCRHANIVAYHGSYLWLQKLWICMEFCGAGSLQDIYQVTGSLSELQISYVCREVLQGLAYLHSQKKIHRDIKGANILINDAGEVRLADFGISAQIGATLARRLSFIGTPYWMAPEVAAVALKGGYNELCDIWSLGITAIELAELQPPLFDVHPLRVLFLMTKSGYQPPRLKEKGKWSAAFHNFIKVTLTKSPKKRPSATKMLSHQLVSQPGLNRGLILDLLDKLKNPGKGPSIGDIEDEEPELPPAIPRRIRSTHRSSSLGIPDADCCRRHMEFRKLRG
As to the kind of experiment: Human HPK1 protein TR-FRET assay. Format: biochemical. The following applies: 1 mM ATP. The procedure, abridged:
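Read-out was TR-FRET using Eu-labeled anti-phospho-CREB (Ser133) antibody, with the 665/615 nm signal ratio normalised to DMSO-only wells and fitted by a 4-parameter logistic model for IC50. Reactions held 10 nM Sf9-expressed GST-HPK1 (a.a. 1-346), 100 nM CREBtide and 1 mM ATP, run 60 minutes at room temperature, pH 7.5.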

For `CC[C@H]1CN(C(=O)Nc2ccc(CN3CCN(C)CC3)c(C(F)(F)F)c2)Cc2cc(Oc3ccnc4[nH]c(C(N)=O)cc34)ccc21` [XV-30], the IC50 (Table 20) was less than 500 nM.

The compound `CCN1CCN(Cc2ccc(NC(=O)N3CCc4ccc(-c5ccc6cc(NC)ncc6c5)cc4C3)cc2C(F)(F)F)CC1` [XI-1] returned a half-maximal inhibitory concentration (IC50) (Table 20) of 500 to 5000 nM.

Under “Table 19”, `CCN1CCN(Cc2ccc(NC(=O)N3CCc4ccc(Oc5ccnc6[nH]ccc56)cc4[C@@H]3C)cc2Cl)CC1` [V-3] returned a 50% inhibitory concentration (IC50) of less than 500 nM.

Compound `C[C@H]1c2cc(Oc3ccnc4[nH]c(C5(O)COC5)cc34)ccc2CCN1C(=O)Nc1ccc(CN2CCN(C)CC2)c(C(F)F)c1` [XIII-10] registered a 50% inhibitory concentration (IC50) (Table 20) of less than 500 nM.
